“And” between values parts separate entries of the source, which are not always exact repeats. Equal entries are not always repeated. Structures can show the parent of a compound that is named as a salt. Where two headings read alike, the source gives them in different places.
Columns and labels:
log phase E. coli [1] = test: MIC against log phase E. coli; format: cell-based, Escherichia coli
Method: (§1) Escherichia coli K12; Gram negative; Reference strain.
(§2) The above-described overnight cultures were diluted (1000×) with iso-sensitest broth. The cultures were then incubated at 37° C. with shaking for 1-2 hours to reach log CFU 6, which served as log phase cultures.
(§3) The bactericidal activity of the drugs against log phase cultures were determined by minimal inhibitory concentration (MIC) of the drugs, which is defined as the lowest concentration which inhibits visible growth. Different concentrations of each test compound were incubated with the log-phase cultures in 96 well plates for 24 hours. Bactericidal activity was then examined by taking a spectrophotometer reading (using a plate reader) at 405 nm.

stationary phase E. coli = test: Bactericidal activity against stationary phase E. coli (CFU counts); format: cell-based, Escherichia coli; conditions: Escherichia coli, read-out: Log kill; for log reduction at 6.25 µg/mL: 6.25 μg/ml; for log reduction at 12.5 µg/mL: 12.50 μg/ml; for log reduction at 25 µg/mL: 25.00 μg/ml
Method: as §1
(§4) Bacteria were grown in 10 ml of nutrient broth (No. 2 (Oxoid)) overnight at 37° C., with continuous shaking at 120 rpm. The overnight cultures were diluted (1000×) in 100 ml of growth medium and then incubated without shaking for 10 days. Viability of the bacteria was estimated by colony forming unit (CFU) counts at 2 hour intervals at the first 24 hours and at 12-24 hours afterwards. From serial 10-fold dilutions of the experimental cultures, 100 μl samples were added to triplicate plates of nutrient agar plates (Oxoid) and blood agar plates (Oxoid). Colony forming units (CFU) were counted after incubation of the plates at 37° C. for 24 hours.
(§5) Cultures incubated for more than 24 hours are in the stationary phase. For drug screening, 5-6 day old stationary phase cultures were used.
(§6) Different concentrations of each test compound were incubated with stationary phase cultures (5-6 day cultures) in 96 well plates for 24 or 48 hours. Bactericidal activity was then determined by taking CFU counts of the resulting cultures, as described above.

[2] = test system: stationary phase S. aureus; test: Bactericidal activity against stationary phase S. aureus (CFU counts); format: cell-based, Staphylococcus aureus; conditions: for log reduction at 6.25 µg/mL / log reduction at 12.5 µg/mL / log reduction at 25 µg/mL: Staphylococcus aureus, read-out: Log Kill
Method: Staphylococcus aureus (Oxford strain); Gram positive; Reference strain.
as §4, §5, §6

[3] = test system: NDM-1 Klebsiella pneumoniae; test: Chequerboard analysis with colistin against NDM-1 Klebsiella pneumoniae; format: cell-based
persistent E. coli = test: Bactericidal activity against persistent E. coli selected by gentamicin; format: cell-based, Escherichia coli
Method: as §1
An antibiotic (gentamicin) was added to 5-6 day stationary-phase cultures to the final concentration of 50 to 100 μg/ml for 24 hours. After 24 hours of antibiotic treatment, the cells are washed 3 times with phosphate buffered saline (PBS), and then resuspended in PBS. The surviving bacterial cells are used as persisters. Viability is estimated by CFU counts. The persisters were then used in measurements of bactericidal activity for test compounds.
Different concentrations of each test compound were incubated with the (persister) cell suspension in 96 well plates for various periods of time (24 and 48 hours). Bactericidal activity was then determined by taking CFU counts of the resulting cultures, as described above.

log phase E. coli [4] = test: Chequerboard analysis with polymyxin E against log phase E. coli; format: cell-based, Escherichia coli
Method: as §1, §2, §3

[5] = Escherichia coli, read-out: MIC

CCN(CC)CCCC(C)Nc1c2ccc(Cl)cc2nc2ccc(OC)cc12 (centres unmarked) [Quinacrine hydrochloride]
MIC (log phase E. coli [1]; [5]): > 50 µg/mL | log reduction at 6.25 µg/mL (stationary phase E. coli): 1.27 | log reduction at 12.5 µg/mL (stationary phase E. coli): 2.14 | log reduction at 25 µg/mL (stationary phase E. coli): 6.14

Clc1ccc(C(Cn2ccnc2)OCc2ccsc2Cl)c(Cl)c1 (centres unmarked) [Tioconazole]
log reduction at 6.25 µg/mL ([2]; 6.25 μg/ml): 0 | log reduction at 12.5 µg/mL ([2]; 12.5 μg/ml): 6.15 | log reduction at 25 µg/mL ([2]; 25 μg/ml): 6.15

CN(C)CCOc1ccc(/C(=C(/CCCl)c2ccccc2)c2ccccc2)cc1 [Toremifene citrate]
log reduction at 6.25 µg/mL ([2]; 6.25 μg/ml): 6.15 | log reduction at 12.5 µg/mL ([2]; 12.5 μg/ml): 6.15 | log reduction at 25 µg/mL ([2]; 25 μg/ml): 6.15

CN1CCN(CCCN2c3ccccc3Sc3ccc(C(F)(F)F)cc32)CC1 [Trifluoperazine hydrochloride]
MIC (log phase E. coli [1]; [5]): 20 µg/mL | log reduction at 6.25 µg/mL ([2]; 6.25 μg/ml): 0 | log reduction at 12.5 µg/mL ([2]; 12.5 μg/ml): 2.22 | log reduction at 25 µg/mL ([2]; 25 μg/ml): 6.03 | spectrophotometer reading ([3]; trifluoperazine hydrochloride 0.25 mg/L alone): 0.96 | spectrophotometer reading ([3]; trifluoperazine hydrochloride 0.5 mg/L alone): 0.95 | spectrophotometer reading ([3]; trifluoperazine hydrochloride 1 mg/L alone): 0.94 | spectrophotometer reading ([3]; trifluoperazine hydrochloride 2 mg/L alone): 0.96 | spectrophotometer reading ([3]; trifluoperazine hydrochloride 4 mg/L alone): 0.95 | spectrophotometer reading ([3]; trifluoperazine hydrochloride 8 mg/L alone): 0.97 | spectrophotometer reading ([3]; trifluoperazine hydrochloride 16 mg/L alone): 0.98 | spectrophotometer reading ([3]; trifluoperazine hydrochloride 32 mg/L alone): 0.95 | spectrophotometer reading ([3]; trifluoperazine hydrochloride 64 mg/L alone): 0.77 | spectrophotometer reading ([3]; trifluoperazine hydrochloride 128 mg/L alone): 0.87 | spectrophotometer reading ([3]; trifluoperazine hydrochloride 256 mg/L alone): 1.33 | log reduction at 6.25 µg/mL (stationary phase E. coli): -0.12 | log reduction at 12.5 µg/mL (stationary phase E. coli): 6.14 | log reduction at 25 µg/mL (stationary phase E. coli): 6.14

Bithionate sodium
MIC (log phase E. coli [1]): 5 µg/mL | Log Kill ([2]; 6.25 μg/ml): 0.01 | Log Kill ([2]; 12.5 μg/ml): 6.15 | Log Kill ([2]; 25 μg/ml): 6.15 | Log Kill (persistent E. coli; 6.25 μg/ml): 0.01 | Log Kill (persistent E. coli; 12.5 μg/ml): 0.03 | Log Kill (persistent E. coli; 25 μg/ml): 6.21

Polymyxin E (Colistin)
spectrophotometer reading (log phase E. coli [4]; polymyxin E 0.0019 μg/ml alone): 1.53 | spectrophotometer reading (log phase E. coli [4]; polymyxin E 0.0039 μg/ml alone): 1.55 | spectrophotometer reading (log phase E. coli [4]; polymyxin E 0.0078 μg/ml alone): 1.55 | spectrophotometer reading (log phase E. coli [4]; polymyxin E 0.015625 μg/ml alone): 1.53 | spectrophotometer reading (log phase E. coli [4]; polymyxin E 0.03125 μg/ml alone): 1.42 | spectrophotometer reading (log phase E. coli [4]; polymyxin E 0.0625 μg/ml alone): 1.52 | spectrophotometer reading (log phase E. coli [4]; polymyxin E 0.125 μg/ml alone): 1.48 | spectrophotometer reading (log phase E. coli [4]; polymyxin E 0.25 μg/ml alone): 1.25 | spectrophotometer reading (log phase E. coli [4]; polymyxin E 0.5 μg/ml alone): 0.49 | spectrophotometer reading (log phase E. coli [4]; polymyxin E 1 μg/ml alone): 0.49 | spectrophotometer reading (log phase E. coli [4]; polymyxin E 2 μg/ml alone): 0.50 | spectrophotometer reading ([3]; colistin 0.5 mg/L alone, Table 6): 1.08 | spectrophotometer reading ([3]; colistin 0.5 mg/L alone, Table 7): 0.98 | spectrophotometer reading ([3]; colistin 0.5 mg/L alone, Table 8): 0.94 | spectrophotometer reading ([3]; colistin 0.5 mg/L alone, Table 9): 1.12 | spectrophotometer reading ([3]; colistin 0.5 mg/L alone, Table 10): 1.14 | spectrophotometer reading ([3]; colistin 0.5 mg/L alone, Table 11): 0.96 | spectrophotometer reading ([3]; colistin 1 mg/L alone, Table 6): 1.03 | spectrophotometer reading ([3]; colistin 1 mg/L alone, Table 7): 1.02 | spectrophotometer reading ([3]; colistin 1 mg/L alone, Table 8): 0.94 | spectrophotometer reading ([3]; colistin 1 mg/L alone, Table 9): 1.13 | spectrophotometer reading ([3]; colistin 1 mg/L alone, Table 10): 1.12 | spectrophotometer reading ([3]; colistin 1 mg/L alone, Table 11): 0.93 | spectrophotometer reading ([3]; colistin 2 mg/L alone, Table 6): 1.05 | spectrophotometer reading ([3]; colistin 2 mg/L alone, Table 7): 0.95 | spectrophotometer reading ([3]; colistin 2 mg/L alone, Table 8): 0.87 | spectrophotometer reading ([3]; colistin 2 mg/L alone, Table 9): 1.07 | spectrophotometer reading ([3]; colistin 2 mg/L alone, Table 10): 1.09 | spectrophotometer reading ([3]; colistin 2 mg/L alone, Table 11): 0.91 | spectrophotometer reading ([3]; colistin 4 mg/L alone, Table 6): 0.34 | spectrophotometer reading ([3]; colistin 4 mg/L alone, Table 7): 0.87 | spectrophotometer reading ([3]; colistin 4 mg/L alone, Table 8): 0.54 | spectrophotometer reading ([3]; colistin 4 mg/L alone, Table 9): 0.80 | spectrophotometer reading ([3]; colistin 4 mg/L alone, Table 10): 0.89 | spectrophotometer reading ([3]; colistin 4 mg/L alone, Table 11): 0.90 | spectrophotometer reading ([3]; colistin 8 mg/L alone, Table 6): 0.82 | spectrophotometer reading ([3]; colistin 8 mg/L alone, Table 7): 0.44 | spectrophotometer reading ([3]; colistin 8 mg/L alone, Table 8): 0.57 | spectrophotometer reading ([3]; colistin 8 mg/L alone, Table 9): 0.68 | spectrophotometer reading ([3]; colistin 8 mg/L alone, Table 10): 0.63 | spectrophotometer reading ([3]; colistin 8 mg/L alone, Table 11): 0.53 | spectrophotometer reading ([3]; colistin 16 mg/L alone, Table 6): 0.78 | spectrophotometer reading ([3]; colistin 16 mg/L alone, Table 7): 0.53 | spectrophotometer reading ([3]; colistin 16 mg/L alone, Table 8): 0.39 | spectrophotometer reading ([3]; colistin 16 mg/L alone, Table 9): 0.40 | spectrophotometer reading ([3]; colistin 16 mg/L alone, Table 10): 0.69 | spectrophotometer reading ([3]; colistin 16 mg/L alone, Table 11): 0.48 | spectrophotometer reading ([3]; colistin 32 mg/L alone, Table 6): 0.33 | spectrophotometer reading ([3]; colistin 32 mg/L alone, Table 7): 0.36 | spectrophotometer reading ([3]; colistin 32 mg/L alone, Table 8): 0.41 | spectrophotometer reading ([3]; colistin 32 mg/L alone, Table 9): 0.39 | spectrophotometer reading ([3]; colistin 32 mg/L alone, Table 10): 0.40 | spectrophotometer reading ([3]; colistin 32 mg/L alone, Table 11): 0.41 | Colistin MIC ([3]; colistin alone): 32 µg/mL and 16 µg/mL | Colistin MIC ([3]; combined with 32 mg/L of suloctidil): 1 µg/mL | Colistin MIC ([3]; combined with 64 mg/L of mefloquine): 0.5 µg/mL

Vitamin B12
MIC (log phase E. coli [1]): — (— signifies MIC higher than 50 μg/ml) | Log Kill (persistent E. coli; 6.25 μg/ml): 0.03 | Log Kill (persistent E. coli; 12.5 μg/ml): 6.21 | Log Kill (persistent E. coli; 25 μg/ml): 6.21
